Results as given in patent US20120115872A1, “COMBINATION OF A SODIUM-PROTON EXCHANGER INHIBITOR AND OF A DIHYDRO-1,3,5-TRIAZINE AMINE DERIVATIVE” (Merck Patent GMBH, priority 2009, published 2012).

What was measured:
Type in all cases: cell-based
[1] = system: complex I of the endothelial cell respiratory chain; experiment: Production of ROS by complex I of the endothelial cell respiratory chain; conditions: endothelial cells; by inhibiting reverse electron flow
[2] = system: human dermal microvascular endothelial cell line HMEC-1; experiment: Mitochondrial membrane potential (TMRM probe, confocal microscopy) in HMEC-1 cells under ischaemia/reperfusion
Method: The immortalized human dermal microvascular endothelial cell line HMEC-1 was used. […] They were analysed by confocal microscopy before the treatment, after 60 minutes of ischaemia, after 90 minutes of reperfusion and after 120 minutes of reperfusion.

[3] = system: mitochondrial transient permeability pore (TPP); experiment: Opening of the mitochondrial transient permeability pore (TPP); conditions: during ischaemia and/or reperfusion events

`CC1N=C(N)NC(N(C)C)=N1` (stereo not shown) [E 008] was tested, and the “production of ROS by complex I of the respiratory chain” value [1] was “reduce the production of ROS”, the “mitochondrial membrane potential after reperfusion” value ([2]; HMEC-1, 30 min pre-incubation, 60 min ischaemia, reperfusion 90 and 120 min, TMRM 30 nM) was “protected against the damage induced by the reperfusion” and the “loss of potential of the mitochondrial membrane” value ([2]; during ischaemia and/or reperfusion events) was “prevent the loss of potential of the mitochondrial membrane”. For the same compound, the “opening of the mitochondrial transient permeability pore (TPP)” value [3] was “reduce the opening of the mitochondrial transient permeability pore (TPP)”.
